# Assay results taken from the supplement of paper PMC10307832.
# Key:
# Test in all cases: relative viability (nuclei count vs DMSO), 5 days (fraction); higher = more cells survive
# 201T = test system: 201T
# In short: (§1)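 Dosing by pin tool came one day after lung cancer cell lines were seeded in 1536-well plates, using either one drug or a fixed anchor-drug dose plus five library-drug doses (not always all listed) in √10 steps. After 5 days, nuclei were counted on 4× images. Relative viability is treated-well nuclei count divided by vehicle-well nuclei count, and values are medians of duplicate plates.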
# COR-L23 = test system: COR-L23
# In short: as §1
# EPLC-272H = test system: EPLC-272H
# In short: as §1
# H3255 = test system: H3255
# In short: as §1
# HCC-15 = test system: HCC-15
# In short: as §1
# LOU-NH91 = test system: LOU-NH91
# In short: as §1
# NCI-H1563 = test system: NCI-H1563
# In short: as §1
# NCI-H1650 = test system: NCI-H1650
# In short: as §1
# NCI-H1734 = test system: NCI-H1734
# In short: as §1
# NCI-H1793 = test system: NCI-H1793
# In short: as §1
# NCI-H2023 = test system: NCI-H2023
# In short: as §1
# NCI-H2170 = test system: NCI-H2170
# In short: as §1
# NCI-H2347 = test system: NCI-H2347
# In short: as §1
# NCI-H2405 = test system: NCI-H2405
# In short: as §1
# NCI-H3122 = test system: NCI-H3122
# In short: as §1
# NCI-H322M = test system: NCI-H322M
# In short: as §1
# NCI-H441 = test system: NCI-H441
# In short: as §1
# NCI-H520 = test system: NCI-H520
# In short: as §1
# NCI-H647 = test system: NCI-H647
# In short: as §1
# PC-14 = test system: PC-14
# In short: as §1
# UMC-11 = test system: UMC-11
# In short: as §1
compound,measurement,setting,value
Nc1ccn([C@@H]2O[C@H](CO)[C@@H](O)[C@@H]2O)c(=O)n1 [Cytarabine] + CS(=O)(=O)N1CCN(Cc2cc3nc(-c4cccc5[nH]ncc45)nc(N4CCOCC4)c3s2)CC1 [Pictilisib] (partner 1 µM),relative viability,201T; first compound 0.005 µM,0.655
same,relative viability,201T; first compound 0.01581 µM,0.707
same,relative viability,201T; first compound 0.05 µM,0.738
same,relative viability,201T; first compound 0.1581 µM,0.576
same,relative viability,201T; first compound 0.5 µM,0.416
same,relative viability,COR-L23; first compound 0.005 µM,0.637
same,relative viability,COR-L23; first compound 0.01581 µM,0.51
same,relative viability,COR-L23; first compound 0.05 µM,0.532
same,relative viability,COR-L23; first compound 0.1581 µM,0.171
same,relative viability,COR-L23; first compound 0.5 µM,0.112
same,relative viability,EPLC-272H; first compound 0.005 µM,0.246
same,relative viability,EPLC-272H; first compound 0.01581 µM,0.297
same,relative viability,EPLC-272H; first compound 0.05 µM,0.242
same,relative viability,EPLC-272H; first compound 0.1581 µM,0.187
same,relative viability,EPLC-272H; first compound 0.5 µM,0.207
same,relative viability,H3255; first compound 0.005 µM,0.438
same,relative viability,H3255; first compound 0.01581 µM,0.446
same,relative viability,H3255; first compound 0.05 µM,0.403
same,relative viability,H3255; first compound 0.1581 µM,0.294
same,relative viability,H3255; first compound 0.5 µM,0.303
same,relative viability,HCC-15; first compound 0.005 µM,0.709
same,relative viability,HCC-15; first compound 0.01581 µM,0.704
same,relative viability,HCC-15; first compound 0.05 µM,0.672
same,relative viability,HCC-15; first compound 0.1581 µM,0.504
same,relative viability,HCC-15; first compound 0.5 µM,0.453
same,relative viability,LOU-NH91; first compound 0.005 µM,0.525
same,relative viability,LOU-NH91; first compound 0.01581 µM,0.56
same,relative viability,LOU-NH91; first compound 0.05 µM,0.489
same,relative viability,LOU-NH91; first compound 0.1581 µM,0.385
same,relative viability,LOU-NH91; first compound 0.5 µM,0.369
same,relative viability,NCI-H1563; first compound 0.005 µM,0.595
same,relative viability,NCI-H1563; first compound 0.01581 µM,0.649
same,relative viability,NCI-H1563; first compound 0.05 µM,0.657
same,relative viability,NCI-H1563; first compound 0.1581 µM,0.589
same,relative viability,NCI-H1563; first compound 0.5 µM,0.6
same,relative viability,NCI-H1650; first compound 0.005 µM,0.442
same,relative viability,NCI-H1650; first compound 0.01581 µM,0.467
same,relative viability,NCI-H1650; first compound 0.05 µM,0.359
same,relative viability,NCI-H1650; first compound 0.1581 µM,0.205
same,relative viability,NCI-H1650; first compound 0.5 µM,0.181
same,relative viability,NCI-H1734; first compound 0.005 µM,0.365
same,relative viability,NCI-H1734; first compound 0.01581 µM,0.217
same,relative viability,NCI-H1734; first compound 0.05 µM,0.213
same,relative viability,NCI-H1734; first compound 0.1581 µM,0.147
same,relative viability,NCI-H1734; first compound 0.5 µM,0.118
same,relative viability,NCI-H1793; first compound 0.005 µM,0.312
same,relative viability,NCI-H1793; first compound 0.01581 µM,0.29
same,relative viability,NCI-H1793; first compound 0.05 µM,0.383
same,relative viability,NCI-H1793; first compound 0.1581 µM,0.307
same,relative viability,NCI-H1793; first compound 0.5 µM,0.194
same,relative viability,NCI-H2023; first compound 0.005 µM,0.193
same,relative viability,NCI-H2023; first compound 0.01581 µM,0.137
same,relative viability,NCI-H2023; first compound 0.05 µM,0.112
same,relative viability,NCI-H2023; first compound 0.1581 µM,0.0708
same,relative viability,NCI-H2023; first compound 0.5 µM,0.0698
same,relative viability,NCI-H2170; first compound 0.01581 µM,0.257
same,relative viability,NCI-H2170; first compound 0.05 µM,0.235
same,relative viability,NCI-H2170; first compound 0.1581 µM,0.191
same,relative viability,NCI-H2170; first compound 0.5 µM,0.192
same,relative viability,NCI-H2347; first compound 0.005 µM,0.536
same,relative viability,NCI-H2347; first compound 0.01581 µM,0.811
same,relative viability,NCI-H2347; first compound 0.05 µM,0.778
same,relative viability,NCI-H2347; first compound 0.1581 µM,0.482
same,relative viability,NCI-H2347; first compound 0.5 µM,0.588
same,relative viability,NCI-H2405; first compound 0.005 µM,0.398
same,relative viability,NCI-H2405; first compound 0.01581 µM,0.334
same,relative viability,NCI-H2405; first compound 0.05 µM,0.319
same,relative viability,NCI-H2405; first compound 0.1581 µM,0.301
same,relative viability,NCI-H2405; first compound 0.5 µM,0.229
same,relative viability,NCI-H3122; first compound 0.005 µM,0.629
same,relative viability,NCI-H3122; first compound 0.01581 µM,0.494
same,relative viability,NCI-H3122; first compound 0.05 µM,0.61
same,relative viability,NCI-H3122; first compound 0.1581 µM,0.329
same,relative viability,NCI-H3122; first compound 0.5 µM,0.204
same,relative viability,NCI-H322M; first compound 0.005 µM,0.443
same,relative viability,NCI-H322M; first compound 0.01581 µM,0.492
same,relative viability,NCI-H322M; first compound 0.05 µM,0.368
same,relative viability,NCI-H322M; first compound 0.1581 µM,0.279
same,relative viability,NCI-H322M; first compound 0.5 µM,0.308
same,relative viability,NCI-H441; first compound 0.005 µM,0.481
same,relative viability,NCI-H441; first compound 0.01581 µM,0.443
same,relative viability,NCI-H441; first compound 0.05 µM,0.411
same,relative viability,NCI-H441; first compound 0.1581 µM,0.205
same,relative viability,NCI-H441; first compound 0.5 µM,0.223
same,relative viability,NCI-H520; first compound 0.005 µM,0.228
same,relative viability,NCI-H520; first compound 0.01581 µM,0.276
same,relative viability,NCI-H520; first compound 0.05 µM,0.288
same,relative viability,NCI-H520; first compound 0.1581 µM,0.27
same,relative viability,NCI-H520; first compound 0.5 µM,0.309
same,relative viability,NCI-H647; first compound 0.005 µM,0.39
same,relative viability,NCI-H647; first compound 0.01581 µM,0.212
same,relative viability,NCI-H647; first compound 0.05 µM,0.159
same,relative viability,NCI-H647; first compound 0.1581 µM,0.0808
same,relative viability,NCI-H647; first compound 0.5 µM,0.0843
same,relative viability,PC-14; first compound 0.01581 µM,0.698
same,relative viability,PC-14; first compound 0.05 µM,0.49
same,relative viability,PC-14; first compound 0.5 µM,0.126
same,relative viability,UMC-11; first compound 0.005 µM,0.488
same,relative viability,UMC-11; first compound 0.01581 µM,0.411
same,relative viability,UMC-11; first compound 0.05 µM,0.318
same,relative viability,UMC-11; first compound 0.1581 µM,0.175
same,relative viability,UMC-11; first compound 0.5 µM,0.161
